Values quoted from earlier work as cited in PMC8781228 (Bioorganic & medicinal chemistry letters, 2017).
pEC50: −log10 of the molar value.

Legend:
S1PR2 [1] = conditions: [γ-35S]GTPγS binding assay
S1PR1 = conditions: [γ-35S]GTPγS binding assay
S1PR3 = conditions: [γ-35S]GTPγS binding assay
S1PR4 = conditions: [γ-35S]GTPγS binding assay
S1PR5 = conditions: [γ-35S]GTPγS binding assay
S1PR2 [2] = conditions: read-out: EC50 (allosteric S1PR2 selective agonist)
S1PR2 [3] = conditions: [33P]S1P competitive binding assay

In the case of `CCCCCCCCc1ccc(CCC(N)(CO)CO)cc1` [FTY720, fingolimod], the “activity at S1PR2” value (S1PR2 [1]) is listed as “inactive”, the “activity at S1PR1” value (S1PR1) is listed as “potent agonist” and the “activity at S1PR3” value (S1PR3) is listed as “potent agonist”. For the same compound, the “activity at S1PR4” value (S1PR4) was “potent agonist” and the “activity at S1PR5” value (S1PR5) was “potent agonist”.

In the case of `Cc1cc(C(=O)Cn2cc(C#N)ccc2=O)c(C)n1Cc1ccccc1` [CYM-5520], the pEC50 (S1PR2 [2]) is given as 6.32 and the “competition with S1P” value (S1PR2 [3]) is given as “not competitive with S1P”.
